ChEMBL document CHEMBL5727632, “Substituted 1H-imidazo[4,5-b]pyridin-2(3H)-ones and their use as GluN2B receptor modulators” (2020)

Molecular target: Glutamate receptor ionotropic, NMDA 2B (Homo sapiens, UniProt Q05586+Q13224)
Test: Standard cell-based calcium flux assay: NMDA receptors are ion channels that are highly permeable to Ca2+ ions, rendering it possible to monitor NMDA receptor function using cell-based calcium flux assay. In this assay, co-agonists glutamate and glycine are added to cells heterologously expressing human GluN1/GluN2B NMDA receptors to initiate cellular Ca2+ influx. The time course of the changes in intracellular calcium is measured using a fluorescent dye and a FLIPR (Fluorometric Imaging Plate Reader) device.Twenty four hours before measurements, the expression of the NMDA receptors in the stable cell line is induced with Tet-On inducible system in the presence of a non-selective NMDA receptor blocker. On the day of the experiment, cell culture media is carefully washed and the cells are loaded with Calcium 5 Dye Kit (Molecular Devices) in dye loading buffer containing 137 mM NaCl, 4 mM KCl, 2 mM CaCl2, 0.5 mM MgCl2 (standard assay) or 1.5 mM MgCl2 (HTS assay), 10 mM HEPES and 5 mM D-glucose; pH 7.4. […]

Glutamate receptor ionotropic, NMDA 2B, sequence (Q13224 whole entry, one chain of several): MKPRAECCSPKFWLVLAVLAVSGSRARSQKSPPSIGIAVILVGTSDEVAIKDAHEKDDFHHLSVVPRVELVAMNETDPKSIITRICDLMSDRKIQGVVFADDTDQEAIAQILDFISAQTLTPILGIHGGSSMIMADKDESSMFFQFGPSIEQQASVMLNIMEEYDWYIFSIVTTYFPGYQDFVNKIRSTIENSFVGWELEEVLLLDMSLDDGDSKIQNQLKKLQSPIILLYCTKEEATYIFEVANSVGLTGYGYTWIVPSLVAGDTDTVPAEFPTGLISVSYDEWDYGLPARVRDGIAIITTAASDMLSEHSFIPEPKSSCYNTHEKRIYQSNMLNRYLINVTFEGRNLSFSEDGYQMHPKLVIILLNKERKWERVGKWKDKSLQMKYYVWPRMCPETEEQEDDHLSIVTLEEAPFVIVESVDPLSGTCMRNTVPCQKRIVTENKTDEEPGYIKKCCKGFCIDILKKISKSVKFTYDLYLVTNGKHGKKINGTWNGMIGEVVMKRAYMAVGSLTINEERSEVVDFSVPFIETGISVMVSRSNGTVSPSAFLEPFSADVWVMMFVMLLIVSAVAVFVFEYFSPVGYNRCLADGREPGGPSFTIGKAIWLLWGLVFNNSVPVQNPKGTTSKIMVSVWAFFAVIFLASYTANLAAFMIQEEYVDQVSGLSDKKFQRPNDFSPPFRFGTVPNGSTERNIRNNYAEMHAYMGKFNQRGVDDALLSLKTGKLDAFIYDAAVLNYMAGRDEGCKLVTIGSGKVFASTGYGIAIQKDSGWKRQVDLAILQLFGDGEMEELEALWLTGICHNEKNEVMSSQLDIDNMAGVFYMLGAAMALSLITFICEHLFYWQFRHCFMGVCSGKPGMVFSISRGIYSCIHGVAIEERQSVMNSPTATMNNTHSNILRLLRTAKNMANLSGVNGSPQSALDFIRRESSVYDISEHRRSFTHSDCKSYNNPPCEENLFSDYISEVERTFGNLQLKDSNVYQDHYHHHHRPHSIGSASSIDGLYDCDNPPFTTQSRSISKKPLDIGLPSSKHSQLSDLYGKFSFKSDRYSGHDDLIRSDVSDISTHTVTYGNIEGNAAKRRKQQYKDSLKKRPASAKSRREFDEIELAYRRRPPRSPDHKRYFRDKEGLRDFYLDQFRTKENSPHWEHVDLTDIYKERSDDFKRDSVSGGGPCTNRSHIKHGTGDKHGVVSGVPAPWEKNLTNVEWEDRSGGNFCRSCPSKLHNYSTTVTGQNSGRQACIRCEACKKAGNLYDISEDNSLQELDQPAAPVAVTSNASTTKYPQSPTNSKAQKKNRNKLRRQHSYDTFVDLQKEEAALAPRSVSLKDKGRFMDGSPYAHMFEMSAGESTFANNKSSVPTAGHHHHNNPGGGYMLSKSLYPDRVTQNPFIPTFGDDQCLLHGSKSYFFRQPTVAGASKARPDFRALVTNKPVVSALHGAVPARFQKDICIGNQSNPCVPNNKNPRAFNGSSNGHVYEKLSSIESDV

IC50: 1290 nM
Structure (SMILES): Cn1c(=O)n(CC(=O)N2CCC2)c2cc(-c3cc(OCCF)cc(C(F)(F)F)c3)cnc21
